Test results as given in paper PMC12670405, “Second-Generation AURKA-Targeting PROTACs: Structural Optimization toward in Vivo Degradation in Neuroblastoma” (Journal of Medicinal Chemistry, 2025).

How the values were obtained:
Assay in all cases: KINOMEscan scanMAX
Type in all cases: binding
Conditions in all cases: read-out: Percent Control
[1] = target: T1, ABL1(E255K)-phosphorylated (Homo sapiens, UniProt P00519, E255K)
T1 construct: purchased Eurofins Discovery (DiscoverX KINOMEscan scanMAX)
Description: (§1) The kinome-wide binding assay was performed by Eurofins Discovery using the scanMAX screening platform. More information can be found on the Eurofins Discovery Web site.

[2] = target: T2, ABL1(F317I)-nonphosphorylated (Homo sapiens, UniProt P00519, F317I)
T2 construct: purchased Eurofins Discovery (DiscoverX KINOMEscan scanMAX)
Description: as §1

[3] = target: T3, ABL1(F317L)-nonphosphorylated (Homo sapiens, UniProt P00519, F317L)
T3 construct: purchased Eurofins Discovery (DiscoverX KINOMEscan scanMAX)
Description: as §1

ABL1-nonphosphorylated = target: T4, ABL1-nonphosphorylated (Homo sapiens, UniProt P00519)
T4 construct: purchased Eurofins Discovery (DiscoverX KINOMEscan scanMAX)
Description: as §1

AKT2 = target: T5, AKT2 (Homo sapiens, UniProt P31751)
T5 construct: purchased Eurofins Discovery (DiscoverX KINOMEscan scanMAX)
Description: as §1

ALK(C1156Y) = target: T6, ALK(C1156Y) (Homo sapiens, UniProt Q9UM73, C1156Y)
T6 construct: purchased Eurofins Discovery (DiscoverX KINOMEscan scanMAX)
Description: as §1

CDK8 = target: T7, CDK8 (Homo sapiens, UniProt P49336)
T7 construct: purchased Eurofins Discovery (DiscoverX KINOMEscan scanMAX)
Description: as §1

CIT = target: T8, CIT (Homo sapiens, UniProt O14578)
T8 construct: purchased Eurofins Discovery (DiscoverX KINOMEscan scanMAX)
Description: as §1

CLK1 = target: T9, CLK1 (Homo sapiens, UniProt P49759)
T9 construct: purchased Eurofins Discovery (DiscoverX KINOMEscan scanMAX)
Description: as §1

CLK2 = target: T10, CLK2 (Homo sapiens, UniProt P49760)
T10 construct: purchased Eurofins Discovery (DiscoverX KINOMEscan scanMAX)
Description: as §1

CSK = target: T11, CSK (Homo sapiens, UniProt P41240)
T11 construct: purchased Eurofins Discovery (DiscoverX KINOMEscan scanMAX)
Description: as §1

CSNK2A2 = target: T12, CSNK2A2 (Homo sapiens, UniProt P19784)
T12 construct: purchased Eurofins Discovery (DiscoverX KINOMEscan scanMAX)
Description: as §1

ERK3 = target: T13, ERK3 (Homo sapiens, UniProt Q16659)
T13 construct: purchased Eurofins Discovery (DiscoverX KINOMEscan scanMAX)
Description: as §1

FER = target: T14, FER (Homo sapiens, UniProt P16591)
T14 construct: purchased Eurofins Discovery (DiscoverX KINOMEscan scanMAX)
Description: as §1

FGR = target: T15, FGR (Homo sapiens, UniProt P09769)
T15 construct: purchased Eurofins Discovery (DiscoverX KINOMEscan scanMAX)
Description: as §1

FLT3(K663Q) = target: T16, FLT3(K663Q) (Homo sapiens, UniProt P36888, K663Q)
T16 construct: purchased Eurofins Discovery (DiscoverX KINOMEscan scanMAX)
Description: as §1

FRK = target: T17, FRK (Homo sapiens, UniProt P42685)
T17 construct: purchased Eurofins Discovery (DiscoverX KINOMEscan scanMAX)
Description: as §1

GRK1 = target: T18, GRK1 (Homo sapiens, UniProt Q15835)
T18 construct: purchased Eurofins Discovery (DiscoverX KINOMEscan scanMAX)
Description: as §1

HUNK = target: T19, HUNK (Homo sapiens, UniProt P57058)
T19 construct: purchased Eurofins Discovery (DiscoverX KINOMEscan scanMAX)
Description: as §1

IRAK4 = target: T20, IRAK4 (Homo sapiens, UniProt Q9NWZ3)
T20 construct: purchased Eurofins Discovery (DiscoverX KINOMEscan scanMAX)
Description: as §1

KIT(L576P) = target: T21, KIT(L576P) (Homo sapiens, UniProt P10721, L576P)
T21 construct: purchased Eurofins Discovery (DiscoverX KINOMEscan scanMAX)
Description: as §1

KIT(V559D,V654A) = target: T22, KIT(V559D,V654A) (Homo sapiens, UniProt P10721, V559D/V654A)
T22 construct: purchased Eurofins Discovery (DiscoverX KINOMEscan scanMAX)
Description: as §1

MAST1 = target: T23, MAST1 (Homo sapiens, UniProt Q9Y2H9)
T23 construct: purchased Eurofins Discovery (DiscoverX KINOMEscan scanMAX)
Description: as §1

MKK7 = target: T24, MKK7 (Homo sapiens, UniProt O14733)
T24 construct: purchased Eurofins Discovery (DiscoverX KINOMEscan scanMAX)
Description: as §1

MLCK = target: T25, MLCK (Homo sapiens, UniProt Q32MK0)
T25 construct: purchased Eurofins Discovery (DiscoverX KINOMEscan scanMAX)
Description: as §1

PAK3 = target: T26, PAK3 (Homo sapiens, UniProt O75914)
T26 construct: purchased Eurofins Discovery (DiscoverX KINOMEscan scanMAX)
Description: as §1

PFPK5(P.falciparum) = target: T27, PFPK5(P.falciparum) (Plasmodium falciparum, UniProt P61075)
T27 construct: purchased Eurofins Discovery (DiscoverX KINOMEscan scanMAX)
Description: as §1

PIK3CA(E545K) = target: T28, PIK3CA(E545K) (Homo sapiens, UniProt P42336, E545K)
T28 construct: purchased Eurofins Discovery (DiscoverX KINOMEscan scanMAX)
Description: as §1

PKAC-alpha = target: T29, PKAC-alpha (Homo sapiens, UniProt P17612)
T29 construct: purchased Eurofins Discovery (DiscoverX KINOMEscan scanMAX)
Description: as §1

PRKD2 = target: T30, PRKD2 (Homo sapiens, UniProt Q9BZL6)
T30 construct: purchased Eurofins Discovery (DiscoverX KINOMEscan scanMAX)
Description: as §1

SIK2 = target: T31, SIK2 (Homo sapiens, UniProt Q9H0K1)
T31 construct: purchased Eurofins Discovery (DiscoverX KINOMEscan scanMAX)
Description: as §1

TTK = target: T32, TTK (Homo sapiens, UniProt P33981)
T32 construct: purchased Eurofins Discovery (DiscoverX KINOMEscan scanMAX)
Description: as §1

TXK = target: T33, TXK (Homo sapiens, UniProt P42681)
T33 construct: purchased Eurofins Discovery (DiscoverX KINOMEscan scanMAX)
Description: as §1

p38-delta = target: T34, p38-delta (Homo sapiens, UniProt O15264)
T34 construct: purchased Eurofins Discovery (DiscoverX KINOMEscan scanMAX)
Description: as §1

T19 sequence (P57058 whole entry): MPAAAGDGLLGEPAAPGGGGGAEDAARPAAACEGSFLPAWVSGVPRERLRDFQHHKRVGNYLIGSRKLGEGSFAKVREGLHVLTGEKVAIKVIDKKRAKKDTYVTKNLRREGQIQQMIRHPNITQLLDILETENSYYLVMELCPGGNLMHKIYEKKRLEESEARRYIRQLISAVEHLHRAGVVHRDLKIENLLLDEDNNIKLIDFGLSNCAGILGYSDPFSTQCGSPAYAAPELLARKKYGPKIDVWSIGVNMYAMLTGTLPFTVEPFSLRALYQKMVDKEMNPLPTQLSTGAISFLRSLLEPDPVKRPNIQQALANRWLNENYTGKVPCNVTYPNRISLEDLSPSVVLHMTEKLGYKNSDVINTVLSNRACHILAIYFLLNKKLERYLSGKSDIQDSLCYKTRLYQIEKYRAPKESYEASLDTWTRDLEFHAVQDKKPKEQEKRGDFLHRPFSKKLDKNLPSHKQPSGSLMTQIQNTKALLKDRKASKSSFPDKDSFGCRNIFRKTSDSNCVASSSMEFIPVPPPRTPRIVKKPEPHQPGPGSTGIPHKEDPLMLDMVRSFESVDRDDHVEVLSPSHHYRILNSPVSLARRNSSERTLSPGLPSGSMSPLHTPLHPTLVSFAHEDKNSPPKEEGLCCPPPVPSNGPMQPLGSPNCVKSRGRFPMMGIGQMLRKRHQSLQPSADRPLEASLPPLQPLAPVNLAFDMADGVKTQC
T33 sequence (P42681 whole entry): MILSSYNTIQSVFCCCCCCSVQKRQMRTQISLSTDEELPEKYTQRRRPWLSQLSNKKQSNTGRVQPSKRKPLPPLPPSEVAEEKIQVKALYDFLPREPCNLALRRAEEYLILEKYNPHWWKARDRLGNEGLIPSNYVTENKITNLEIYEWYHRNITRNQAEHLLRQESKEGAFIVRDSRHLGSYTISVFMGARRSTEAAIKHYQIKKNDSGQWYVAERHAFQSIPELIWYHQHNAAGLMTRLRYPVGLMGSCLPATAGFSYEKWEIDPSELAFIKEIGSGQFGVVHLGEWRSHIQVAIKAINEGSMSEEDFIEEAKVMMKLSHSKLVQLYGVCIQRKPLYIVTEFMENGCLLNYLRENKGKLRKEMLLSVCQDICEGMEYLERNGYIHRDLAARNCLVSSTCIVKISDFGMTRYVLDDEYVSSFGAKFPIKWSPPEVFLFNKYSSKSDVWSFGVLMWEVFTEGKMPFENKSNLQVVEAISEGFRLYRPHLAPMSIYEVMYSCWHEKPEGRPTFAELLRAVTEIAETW
T25 sequence (Q32MK0 whole entry): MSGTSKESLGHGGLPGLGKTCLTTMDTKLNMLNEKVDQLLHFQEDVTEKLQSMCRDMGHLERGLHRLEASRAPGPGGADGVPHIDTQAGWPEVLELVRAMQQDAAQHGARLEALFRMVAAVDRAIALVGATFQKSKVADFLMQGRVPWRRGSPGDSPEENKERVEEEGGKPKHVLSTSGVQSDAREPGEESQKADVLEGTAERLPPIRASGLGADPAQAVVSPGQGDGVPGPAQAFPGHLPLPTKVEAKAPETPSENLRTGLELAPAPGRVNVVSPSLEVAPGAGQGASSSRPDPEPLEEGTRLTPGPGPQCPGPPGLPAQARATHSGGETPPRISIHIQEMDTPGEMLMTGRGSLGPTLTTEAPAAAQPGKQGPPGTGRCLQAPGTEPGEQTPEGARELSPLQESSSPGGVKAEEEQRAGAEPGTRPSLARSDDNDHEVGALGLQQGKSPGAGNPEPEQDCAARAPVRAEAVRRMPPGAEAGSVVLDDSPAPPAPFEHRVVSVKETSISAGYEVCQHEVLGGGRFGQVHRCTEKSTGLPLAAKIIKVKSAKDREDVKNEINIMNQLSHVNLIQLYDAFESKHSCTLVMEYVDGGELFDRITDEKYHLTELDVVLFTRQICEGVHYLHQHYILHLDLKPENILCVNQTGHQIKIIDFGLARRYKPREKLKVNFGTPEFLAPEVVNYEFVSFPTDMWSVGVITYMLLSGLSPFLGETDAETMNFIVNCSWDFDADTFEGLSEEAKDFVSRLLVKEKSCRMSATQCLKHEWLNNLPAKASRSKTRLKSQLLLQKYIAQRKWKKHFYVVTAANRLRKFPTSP
T9 sequence (P49759 whole entry): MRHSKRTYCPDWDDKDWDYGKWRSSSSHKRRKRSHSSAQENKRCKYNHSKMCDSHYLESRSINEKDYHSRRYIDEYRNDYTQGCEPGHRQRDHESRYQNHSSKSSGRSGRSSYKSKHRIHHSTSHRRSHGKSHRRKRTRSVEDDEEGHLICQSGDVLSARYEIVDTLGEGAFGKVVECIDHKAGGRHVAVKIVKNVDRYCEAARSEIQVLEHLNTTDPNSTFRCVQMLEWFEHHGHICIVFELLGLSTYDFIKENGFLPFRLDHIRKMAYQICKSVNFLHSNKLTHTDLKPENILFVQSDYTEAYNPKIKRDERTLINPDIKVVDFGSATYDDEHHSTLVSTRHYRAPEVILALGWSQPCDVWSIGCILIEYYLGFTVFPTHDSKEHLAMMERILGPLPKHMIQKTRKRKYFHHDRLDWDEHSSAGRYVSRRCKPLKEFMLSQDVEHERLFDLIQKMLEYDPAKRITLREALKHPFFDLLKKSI
T11 sequence (P41240 whole entry): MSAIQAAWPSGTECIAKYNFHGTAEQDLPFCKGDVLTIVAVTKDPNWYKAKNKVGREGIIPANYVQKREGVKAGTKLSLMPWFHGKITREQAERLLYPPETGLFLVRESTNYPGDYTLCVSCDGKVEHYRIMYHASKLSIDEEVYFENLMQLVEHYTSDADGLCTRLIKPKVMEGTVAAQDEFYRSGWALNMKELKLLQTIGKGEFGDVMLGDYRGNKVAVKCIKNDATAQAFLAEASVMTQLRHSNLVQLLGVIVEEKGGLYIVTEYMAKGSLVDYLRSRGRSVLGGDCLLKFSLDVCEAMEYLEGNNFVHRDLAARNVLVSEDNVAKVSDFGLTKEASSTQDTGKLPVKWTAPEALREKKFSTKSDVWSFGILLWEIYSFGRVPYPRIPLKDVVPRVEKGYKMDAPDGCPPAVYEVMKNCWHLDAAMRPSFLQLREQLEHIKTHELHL
T34 sequence (O15264 whole entry): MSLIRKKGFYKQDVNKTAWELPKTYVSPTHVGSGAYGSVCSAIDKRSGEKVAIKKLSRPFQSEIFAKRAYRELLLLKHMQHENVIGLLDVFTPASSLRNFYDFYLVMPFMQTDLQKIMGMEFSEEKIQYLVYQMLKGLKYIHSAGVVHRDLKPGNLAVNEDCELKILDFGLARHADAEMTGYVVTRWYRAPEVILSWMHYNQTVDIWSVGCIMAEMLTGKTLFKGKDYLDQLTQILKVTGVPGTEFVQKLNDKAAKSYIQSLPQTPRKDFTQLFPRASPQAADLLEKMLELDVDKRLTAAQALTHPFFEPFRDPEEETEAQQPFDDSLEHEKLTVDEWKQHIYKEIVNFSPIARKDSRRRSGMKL
T21 sequence (P10721 26-976 L576P): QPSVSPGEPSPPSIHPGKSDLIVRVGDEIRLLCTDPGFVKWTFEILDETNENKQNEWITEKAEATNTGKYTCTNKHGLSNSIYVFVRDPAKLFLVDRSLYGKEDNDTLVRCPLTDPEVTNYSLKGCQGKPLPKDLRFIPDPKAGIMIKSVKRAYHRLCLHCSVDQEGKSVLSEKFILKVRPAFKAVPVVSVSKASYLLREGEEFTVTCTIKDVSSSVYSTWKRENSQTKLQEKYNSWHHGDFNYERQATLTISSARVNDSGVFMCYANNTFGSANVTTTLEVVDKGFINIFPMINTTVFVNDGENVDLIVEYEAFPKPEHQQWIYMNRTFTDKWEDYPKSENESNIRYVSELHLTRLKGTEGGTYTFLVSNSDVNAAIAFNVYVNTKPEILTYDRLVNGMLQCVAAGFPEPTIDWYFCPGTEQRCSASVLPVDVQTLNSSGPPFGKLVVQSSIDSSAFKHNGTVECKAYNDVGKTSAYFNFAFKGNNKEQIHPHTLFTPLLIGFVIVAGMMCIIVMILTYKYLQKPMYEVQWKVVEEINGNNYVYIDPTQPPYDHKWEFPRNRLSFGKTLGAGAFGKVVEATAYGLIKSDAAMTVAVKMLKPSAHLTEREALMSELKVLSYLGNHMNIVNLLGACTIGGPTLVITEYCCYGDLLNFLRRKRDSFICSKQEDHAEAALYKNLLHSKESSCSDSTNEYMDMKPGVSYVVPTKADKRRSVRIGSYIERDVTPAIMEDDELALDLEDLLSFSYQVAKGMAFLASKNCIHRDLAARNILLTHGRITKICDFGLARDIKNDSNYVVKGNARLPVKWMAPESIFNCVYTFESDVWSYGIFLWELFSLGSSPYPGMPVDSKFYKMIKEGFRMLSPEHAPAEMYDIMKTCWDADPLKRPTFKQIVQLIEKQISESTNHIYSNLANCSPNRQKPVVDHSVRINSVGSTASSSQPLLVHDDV
T22 sequence (P10721 26-976 V559D/V654A): as the sequence (P10721 26-976 L576P) above, with V534D, P551L, V629A counted along it
T27 sequence (P61075 whole entry): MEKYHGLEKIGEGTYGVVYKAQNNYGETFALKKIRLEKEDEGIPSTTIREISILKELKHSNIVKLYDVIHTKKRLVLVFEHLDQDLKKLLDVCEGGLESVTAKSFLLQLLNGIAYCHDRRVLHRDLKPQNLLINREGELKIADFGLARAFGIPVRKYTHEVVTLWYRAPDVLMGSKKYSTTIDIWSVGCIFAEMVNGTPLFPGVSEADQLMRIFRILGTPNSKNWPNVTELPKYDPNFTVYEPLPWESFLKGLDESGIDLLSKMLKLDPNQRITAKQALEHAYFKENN
T12 sequence (P19784 whole entry): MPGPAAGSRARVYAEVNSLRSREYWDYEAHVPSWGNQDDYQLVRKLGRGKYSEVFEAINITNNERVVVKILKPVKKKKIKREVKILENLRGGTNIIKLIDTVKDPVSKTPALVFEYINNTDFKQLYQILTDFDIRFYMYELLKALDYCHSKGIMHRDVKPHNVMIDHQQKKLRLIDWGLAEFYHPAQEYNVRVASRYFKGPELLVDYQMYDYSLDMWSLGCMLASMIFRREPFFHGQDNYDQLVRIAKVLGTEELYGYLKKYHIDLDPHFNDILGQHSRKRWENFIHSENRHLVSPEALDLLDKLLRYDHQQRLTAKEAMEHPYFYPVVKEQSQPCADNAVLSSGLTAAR

Cc1cc(Nc2ccc(F)c(CC3(C(=O)N4CCC(F)(CN5CCN(c6ccc(N7CCC(=O)NC7=O)cn6)CC5)CC4)CCN(Cc4cccc(Cl)c4F)CC3)n2)n[nH]1 [SK5527]
remaining binding at 0.1 µM ([1]; 100 nM): 88%
remaining binding at 1 µM ([1]; 1000 nM): 62%
remaining binding at 0.1 µM ([2]; 100 nM): 84%
remaining binding at 1 µM ([2]; 1000 nM): 74%
remaining binding at 0.1 µM ([3]; 100 nM): 97%
remaining binding at 1 µM ([3]; 1000 nM): 49%
remaining binding at 0.1 µM (ABL1-nonphosphorylated; 100 nM): 55%
remaining binding at 1 µM (ABL1-nonphosphorylated; 1000 nM): 8.4%
remaining binding at 0.1 µM (AKT2; 100 nM): 98%
remaining binding at 1 µM (AKT2; 1000 nM): 98%
remaining binding at 0.1 µM (ALK(C1156Y); 100 nM): 87%
remaining binding at 1 µM (ALK(C1156Y); 1000 nM): 100%
remaining binding at 0.1 µM (CDK8; 100 nM): 88%
remaining binding at 1 µM (CDK8; 1000 nM): 89%
remaining binding at 0.1 µM (CIT; 100 nM): 100%
remaining binding at 1 µM (CIT; 1000 nM): 100%
remaining binding at 0.1 µM (CLK1; 100 nM): 92%
remaining binding at 1 µM (CLK1; 1000 nM): 77%
remaining binding at 0.1 µM (CLK2; 100 nM): 88%
remaining binding at 1 µM (CLK2; 1000 nM): 93%
remaining binding at 0.1 µM (CSK; 100 nM): 100%
remaining binding at 1 µM (CSK; 1000 nM): 100%
remaining binding at 0.1 µM (CSNK2A2; 100 nM): 100%
remaining binding at 1 µM (CSNK2A2; 1000 nM): 100%
remaining binding at 0.1 µM (ERK3; 100 nM): 100%
remaining binding at 1 µM (ERK3; 1000 nM): 94%
remaining binding at 0.1 µM (FER; 100 nM): 84%
remaining binding at 1 µM (FER; 1000 nM): 100%
remaining binding at 0.1 µM (FGR; 100 nM): 89%
remaining binding at 1 µM (FGR; 1000 nM): 61%
remaining binding at 0.1 µM (FLT3(K663Q); 100 nM): 81%
remaining binding at 1 µM (FLT3(K663Q); 1000 nM): 79%
remaining binding at 0.1 µM (FRK; 100 nM): 100%
remaining binding at 1 µM (FRK; 1000 nM): 96%
remaining binding at 0.1 µM (GRK1; 100 nM): 100%
remaining binding at 1 µM (GRK1; 1000 nM): 85%
remaining binding at 0.1 µM (HUNK; 100 nM): 93%
remaining binding at 1 µM (HUNK; 1000 nM): 100%
remaining binding at 0.1 µM (IRAK4; 100 nM): 87%
remaining binding at 1 µM (IRAK4; 1000 nM): 70%
remaining binding at 0.1 µM (KIT(L576P); 100 nM): 100%
remaining binding at 1 µM (KIT(L576P); 1000 nM): 100%
remaining binding at 0.1 µM (KIT(V559D,V654A); 100 nM): 100%
remaining binding at 1 µM (KIT(V559D,V654A); 1000 nM): 97%
remaining binding at 0.1 µM (MAST1; 100 nM): 72%
remaining binding at 1 µM (MAST1; 1000 nM): 100%
remaining binding at 0.1 µM (MKK7; 100 nM): 100%
remaining binding at 1 µM (MKK7; 1000 nM): 54%
remaining binding at 0.1 µM (MLCK; 100 nM): 100%
remaining binding at 1 µM (MLCK; 1000 nM): 0%
remaining binding at 0.1 µM (PAK3; 100 nM): 100%
remaining binding at 1 µM (PAK3; 1000 nM): 100%
remaining binding at 0.1 µM (PFPK5(P.falciparum); 100 nM): 89%
remaining binding at 1 µM (PFPK5(P.falciparum); 1000 nM): 80%
remaining binding at 0.1 µM (PIK3CA(E545K); 100 nM): 93%
remaining binding at 1 µM (PIK3CA(E545K); 1000 nM): 71%
remaining binding at 0.1 µM (PKAC-alpha; 100 nM): 83%
remaining binding at 1 µM (PKAC-alpha; 1000 nM): 86%
remaining binding at 0.1 µM (PRKD2; 100 nM): 78%
remaining binding at 1 µM (PRKD2; 1000 nM): 90%
remaining binding at 0.1 µM (SIK2; 100 nM): 100%
remaining binding at 1 µM (SIK2; 1000 nM): 93%
remaining binding at 0.1 µM (TTK; 100 nM): 100%
remaining binding at 1 µM (TTK; 1000 nM): 100%
remaining binding at 0.1 µM (TXK; 100 nM): 75%
remaining binding at 1 µM (TXK; 1000 nM): 78%
remaining binding at 0.1 µM (p38-delta; 100 nM): 100%
remaining binding at 1 µM (p38-delta; 1000 nM): 100%
